Consider two molecules from patent publication US9758477B2, “Sulfamoylbenzamide derivatives as antiviral agents against HBV infection” (priority 2011, dated 2017).

SMILES strings stand for the structures.

In assay [1] the test system is encapsidated pgRNA. Briefly: Encapsidated pgRNA by Northern blot in AML12HBV10 cells. The class given is cell-based, Hepatitis B virus (HBV). Particulars: 2 days, FIG. 3 panel C, Bay41-4109 5 μM, AT-61 25 μM. The protocol:
(§1) To obtain mechanistic insight of the compounds of present invention against HBV, AML12HBV10 cells cultured in the 12-well plates were treated with a series of concentrations of DVR-1, DVR-56 or DVR-23 for two days in the absence of tetracycline (Guo et al., 2007). As positive controls, the cells were also treated with Bay41-4109 (5 μM) or AT-61 (25 μM), the known HBV nucleocapsid assembly effectors that either bind to HBV core protein dimmer to misdirect its interaction and prevent capsid formation (Bay41-4109) (Deres et al., 2003: Stray and Zlotnick, 2006), or interact with a core assembly intermediate and promote the formation of empty capsids (AT-61) (Feld et al., 2007; Katen et al., King et al., 1998). The amounts of intracellular viral mRNA, encapsidated pgRNA, capsids and nucleocapsid-associated HBV DNA were analyzed with the methods detailed below.
Determination of encapsidated pgRNA: AML12HBV10 cells were lysed by addition of 600 μl of lysis buffer (50 mM Tris-HCl [pH 7.5], 1 mM EDTA, 150 mM NaCl, 1% NP-40) into each well of 12-well plates. The nuclei were removed by centrifugation at 5,000 g for 10 minutes. One-half of the sample was mixed with 6 U of micrococcal nuclease (Pharmacia) and 15 μl of 100 mM CaCl2 and incubated for 15 minutes at 37° C. to digest free nucleic acids. The reaction was stopped with 6 μl of 0.5 M EDTA, and capsids were precipitated by adding 125 μl of 35% polyethylene glycol 8000 in 1.75 M NaCl to the reaction and incubating in ice for 30 minutes, followed by centrifugation at 6,000 g for 10 minutes at 4° C. Pellets were re-suspended in 50 μl of TNE buffer (10 mM Tris-HCl [pH 8], 100 mM NaCl, 1 mM EDTA), pgRNA was extracted by the addition of 1 ml of Trizol reagent. The encapsidated pgRNA were electrophoresed through a 2.2 M formaldehyde-1% agarose gel, transferred to a nylon membrane, and immobilized by UV cross-linking (Stratagene). Hybridization was performed with an alpha-^32P-UTP labeled riboprobe specific for plus strand of HBV genome.

Assay [2] concerns HBV mRNA. Briefly: Analysis of HBV mRNA by Northern blot in AML12HBV10 cells. The class given is cell-based, Hepatitis B virus (HBV). Particulars: 2 days, FIG. 3 panel A. On the procedure:
as §1
Procedure for analysis of HBV mRNA: Upon the completion of treatment, total cellular RNA was extracted with TRIzol reagents (Invitrogen). Five micrograms of total RNA was resolved in 1.5% agarose gel containing 2.2 M formaldehyde and transferred onto Hybond-XL membrane in 20×SSC buffer. The amounts of HBV mRNA were determined by Northern blot hybridization with an alpha-^32P-UTP labeled riboprobe specific for plus strand of HBV genome.

Regarding `CCC(C)NS(=O)(=O)c1ccc(F)c(C(=O)Nc2ccc(F)c(F)c2)c1` (stereo not shown) [DVR-23, 5-sec-butylsulfamoyl-N-(3,4-difluoro-phenyl)-2-fluoro-benzamide], the “level of encapsidated pgRNA” value in assay [1] is “dose-dependently reduced”. The “amount of viral mRNA” value in assay [2] is given as “did not affect”.
Regarding `O=C(Nc1ccc(F)c(F)c1)c1cc(S(=O)(=O)NC2CCCC2)ccc1F` [DVR-56, 5-cyclopentylsulfamoyl-N-(3,4-difluoro-phenyl)-2-fluoro-benzamide], the “level of encapsidated pgRNA” value in assay [1] is “dose-dependently reduced”. Further, the “amount of viral mRNA” value in assay [2] is given as “did not affect”.
